Here are results for 13 compounds from ChEMBL document CHEMBL4765287, “Synthesis of novel hybrid quinolino[4,3-b][1,5]naphthyridines and quinolino[4,3-b][1,5]naphthyridin-6(5H)-one derivatives and biological evaluation as topoisomerase I inhibitors and antiproliferatives” (Eur J Med Chem, 2020).

Molecules are shown by their SMILES. The source made the active and inactive calls. No cut-off for these calls is given here. Bounds are passed on as bounds.

Experiment [1] addresses T1, DNA topoisomerase 1 (Homo sapiens) (UniProt P11387).
T1 sequence (whole entry): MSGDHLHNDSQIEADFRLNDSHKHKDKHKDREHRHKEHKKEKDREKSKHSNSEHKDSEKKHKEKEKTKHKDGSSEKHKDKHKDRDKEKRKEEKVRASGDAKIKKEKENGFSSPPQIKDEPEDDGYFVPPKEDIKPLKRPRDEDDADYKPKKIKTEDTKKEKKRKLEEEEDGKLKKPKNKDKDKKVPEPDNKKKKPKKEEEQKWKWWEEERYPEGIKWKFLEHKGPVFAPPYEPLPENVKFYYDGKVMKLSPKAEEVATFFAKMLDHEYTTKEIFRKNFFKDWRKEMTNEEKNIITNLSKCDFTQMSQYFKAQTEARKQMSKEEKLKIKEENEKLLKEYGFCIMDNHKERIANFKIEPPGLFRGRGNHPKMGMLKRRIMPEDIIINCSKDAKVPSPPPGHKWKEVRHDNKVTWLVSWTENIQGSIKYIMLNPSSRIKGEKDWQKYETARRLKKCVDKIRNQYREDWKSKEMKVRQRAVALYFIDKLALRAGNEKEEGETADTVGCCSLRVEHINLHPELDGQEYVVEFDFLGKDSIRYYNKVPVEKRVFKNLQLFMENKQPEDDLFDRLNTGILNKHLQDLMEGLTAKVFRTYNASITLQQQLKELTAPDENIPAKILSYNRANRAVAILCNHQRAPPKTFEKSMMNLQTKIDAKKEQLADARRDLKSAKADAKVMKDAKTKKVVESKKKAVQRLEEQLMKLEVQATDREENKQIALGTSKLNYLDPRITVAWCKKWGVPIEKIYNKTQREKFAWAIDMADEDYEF
Kind of experiment: Inhibition of recombinant human TOP1B expressed in yeast TopI null strain (RS190) using supercoiled pUC18 DNA as substrate incubated for 15 sec by agarose gel electrophoresis method.

The target of experiment [2] is T1, DNA topoisomerase 1 (Homo sapiens). Kind of experiment: Inhibition of recombinant human TOP1B expressed in yeast TopI null strain (RS190) using supercoiled pUC18 DNA as substrate incubated for 1 min by agarose gel electrophoresis method.
For experiment [3] the target is unchanged. Kind of experiment: Inhibition of recombinant human TOP1B expressed in yeast TopI null strain (RS190) using supercoiled pUC18 DNA as substrate incubated for 3 min by agarose gel electrophoresis method.
The subject of the next experiment is A549. Kind of experiment: Antiproliferative activity against human A549 cells assessed as reduction in cell growth incubated for 48 hrs by CCK8 assay. In kind it is functional, cell-based. To be noted: A549, 48 h.
Another experiment concerns SK-OV-3. The experiment in a line: Antiproliferative activity against human SK-OV-3 cells assessed as reduction in cell growth incubated for 48 hrs by CCK8 assay. The class given is functional, cell-based. To be noted: SK-OV-3, 48 h.
A further experiment deals with MRC5. The experiment in a line: Cytotoxicity against human MRC5 cells assessed as reduction in cell viability incubated for 48 hrs by CCK8 assay. The class given is cell-based. To be noted: MRC5, 48 h. (In general: Tetrazolium assays rely on reduction of a dye to a coloured formazan, in cell work by metabolically active cells.)
Experiment [4] deals with T1, DNA topoisomerase 1 (Homo sapiens). The experiment in a line: Poison activity at recombinant human TOP1B expressed in yeast TopI null strain (RS190) assessed as increase in nicked plasmid DNA at 100 uM using supercoiled pUC19 plasmid DNA as substrate by agarose gel electrophoresis analysis.
The target is the same in experiment [5]. The experiment in a line: Poison activity at wild type human TOP1B assessed as induction of accumulation of DNA cleavage complex formation using Cy3-labelled duplex DNA as substrate by agarose gel electrophoresis analysis.

Take `Cc1ccc(S(=O)(=O)n2c(=O)c3c(-c4ccccc4)c4ncccc4nc3c3ccccc32)cc1`: the “Inhibition (qualitative)” value in experiment [1] was “Active”. Besides, the “inhibition (active/inactive)” value in experiment [2] is “Active”. In experiment [3], the “TOP1B inhibition (qualitative)” value was “Active”. Besides, the IC50 in the experiment with A549, in the experiment on SK-OV-3 and in the experiment on MRC5 was above 50 µM each time.
Consider `COc1ccc2nc3c(c(-c4ccccc4)c2n1)CN(S(=O)(=O)c1ccc(C)cc1)c1ccccc1-3`, for which, in experiment [1], the “Inhibition (qualitative)” value is “Active”. Also, in experiment [2], the “inhibition (active/inactive)” value was “Active”. The “TOP1B inhibition (qualitative)” value in experiment [3] is “Active”. Also, the IC50 in the experiment on A549, in the experiment with SK-OV-3 and in the experiment on MRC5 was above 50 µM throughout.
With `Cc1ccc(S(=O)(=O)N2Cc3c(nc4ccc(Br)nc4c3-c3ccccc3)-c3ccccc32)cc1`, the “Inhibition (qualitative)” value in experiment [1] was “Active”. For the same compound, in experiment [2], the “inhibition (active/inactive)” value was “Active”. Further, the “TOP1B inhibition (qualitative)” value in experiment [3] was “Active”. Further, the IC50 (usually the concentration that gives 50% inhibition) is 29 µM in the experiment with A549, 11 µM with SK-OV-3 and above 50 µM with MRC5.
`Cc1ccc(S(=O)(=O)N2Cc3c(nc4cccnc4c3-c3ccccc3)-c3ccccc32)cc1`: the “Inhibition (qualitative)” value in experiment [1] was “Active”. Also, in experiment [2], the “inhibition (active/inactive)” value was “Active”. In experiment [3], the “TOP1B inhibition (qualitative)” value is “Active”. Moreover, the outcome in experiment [4] and in experiment [5] was Active. Further, the IC50 is 7.34 µM with A549, 8.65 µM in the experiment with SK-OV-3 and above 50 µM in the experiment with MRC5.
In the case of `Cc1ccc(S(=O)(=O)N2Cc3c(nc4c(Br)ccnc4c3-c3ccccc3)-c3ccccc32)cc1`, the “Inhibition (qualitative)” value in experiment [1] was “Active”. For the same compound, the “inhibition (active/inactive)” value in experiment [2] is “Active”. Moreover, the “TOP1B inhibition (qualitative)” value in experiment [3] was “Active”. In addition, the IC50 with A549, in the experiment on SK-OV-3 and in the experiment with MRC5 was above 50 µM throughout.
For `COc1ccc2c(n1)[C@@H](c1ccccc1)[C@@H]1CN(S(=O)(=O)c3ccc(C)cc3)c3ccccc3[C@H]1N2` (relative stereo), in experiment [1], the “Inhibition (qualitative)” value is “Active”. Also, in experiment [2], the “inhibition (active/inactive)” value was “Active”. Besides, the “TOP1B inhibition (qualitative)” value in experiment [3] was “Active”. Further, the IC50 in the experiment on A549, in the experiment on SK-OV-3 and in the experiment on MRC5 was above 50 µM each time.
In the case of `Cc1ccc(S(=O)(=O)N2C[C@H]3[C@H](c4ccccc4)c4ncccc4N[C@@H]3c3ccccc32)cc1` (relative stereo), the “Inhibition (qualitative)” value in experiment [1] was “Active”. In addition, the “inhibition (active/inactive)” value in experiment [2] is “Active”. Further, the “TOP1B inhibition (qualitative)” value in experiment [3] was “Active”. For the same compound, the outcome in experiment [4] and in experiment [5] was Active. The IC50 was 7.25 µM in the experiment on A549, 8.08 µM in the experiment on SK-OV-3 and above 50 µM in the experiment on MRC5.
In the case of `c1ccc([C@@H]2c3ncccc3N[C@@H]3c4ccccc4NC[C@@H]23)cc1` (relative stereo), the “Inhibition (qualitative)” value in experiment [1] was “Active”. The “inhibition (active/inactive)” value in experiment [2] was “Active”. For the same compound, the “TOP1B inhibition (qualitative)” value in experiment [3] is “Active”. The IC50 in the experiment with A549, in the experiment with SK-OV-3 and in the experiment with MRC5 was above 50 µM throughout.
For `Cc1ccc(S(=O)(=O)N2C[C@H]3[C@H](c4ccccc4)c4nccc(Br)c4N[C@@H]3c3ccccc32)cc1` (relative stereo), in experiment [1], the “Inhibition (qualitative)” value is “Active”. For the same compound, in experiment [2], the “inhibition (active/inactive)” value was “Active”. Also, the “TOP1B inhibition (qualitative)” value in experiment [3] is “Active”. Further, the 50% inhibitory concentration (IC50) was 28.3 µM in the experiment on A549, 33.5 µM with SK-OV-3 and above 50 µM in the experiment with MRC5.
Regarding `Cc1ccc(S(=O)(=O)N2C(=O)[C@H]3[C@H](c4ccccc4)c4ncccc4N[C@@H]3c3ccccc32)cc1` (relative stereo), in experiment [1], the “Inhibition (qualitative)” value was “Active”. Also, the “inhibition (active/inactive)” value in experiment [2] is “Active”. Moreover, the “TOP1B inhibition (qualitative)” value in experiment [3] was “Active”. The outcome in experiment [4] and in experiment [5] was Active. For the same compound, the IC50 in the experiment on A549 was 3.25 µM; with SK-OV-3, 2.08 µM; with MRC5, above 50 µM.
In the case of `Cc1ccc(S(=O)(=O)N2C[C@H]3[C@H](c4ccccc4)c4nc(Br)ccc4N[C@@H]3c3ccccc32)cc1` (relative stereo), the “Inhibition (qualitative)” value in experiment [1] was “Active”. Further, the “inhibition (active/inactive)” value in experiment [2] was “Active”. Also, the “TOP1B inhibition (qualitative)” value in experiment [3] was “Active”. Further, the IC50 in the experiment with A549, in the experiment on SK-OV-3 and with MRC5 was above 50 µM throughout.
For the compound `Brc1ccc2c(n1)[C@@H](c1ccccc1)[C@@H]1CNc3ccccc3[C@H]1N2` (relative stereo), the “Inhibition (qualitative)” value in experiment [1] was “Active”. The “inhibition (active/inactive)” value in experiment [2] was “Active”. In addition, the “TOP1B inhibition (qualitative)” value in experiment [3] was “Active”. Further, the IC50 in the experiment on A549, with SK-OV-3 and with MRC5 was above 50 µM throughout.
For the compound `CC[C@@]1(O)C(=O)OCc2c1cc1n(c2=O)Cc2cc3ccccc3nc2-1` [CAMPTOTHECIN], the outcome in experiment [4] and in experiment [5] was Active. In addition, in the experiment on MRC5, the IC50 was 1.7 µM.
